How the values were obtained:
UACC-257 = test: Growth inhibition of human UACC257 cells incubated for 48 hrs by sulforhodamine B assay; format: functional, cell-based; details: UACC-257, 48 h
MDA-MB-231 = test: Growth inhibition of human MDA-MB-231 cells incubated for 48 hrs by sulforhodamine B assay; format: functional, cell-based; details: MDA-MB-231, 48 h
CCRF-CEM = test: Growth inhibition of human CCRF-CEM cells assessed as cell growth at 1 uM incubated for 48 hrs by sulforhodamine B assay relative to control; format: functional; details: read-out: Activity
BT-549 [1] = test: Growth inhibition of human BT549 cells assessed as cell growth at 1 uM incubated for 48 hrs by sulforhodamine B assay relative to control; format: functional; details: BT-549, 48 h, read-out: Activity
KM12 [2] = test: Growth inhibition of human KM12 cells assessed as cell growth at 0.01 uM incubated for 48 hrs by sulforhodamine B assay relative to control; format: functional; details: KM12, 48 h, read-out: Activity
KM12 [3] = test: Growth inhibition of human KM12 cells assessed as cell growth at 0.1 uM incubated for 48 hrs by sulforhodamine B assay relative to control; format: functional; details: KM12, 48 h, read-out: Activity
K562 = test: Growth inhibition of human K562 cells incubated for 48 hrs by sulforhodamine B assay; format: functional, cell-based; details: K562, 48 h
COLO 205 = test: Growth inhibition of human COLO205 cells assessed as cell growth at 0.01 uM incubated for 48 hrs by sulforhodamine B assay relative to control; format: functional; details: COLO 205, 48 h, read-out: Activity
HCC 2998 = test: Growth inhibition of human HCC2998 cells assessed as cell growth at 100 uM incubated for 48 hrs by sulforhodamine B assay relative to control; format: functional; details: HCC 2998, 48 h, read-out: Activity
OVCAR-8 = test: Growth inhibition of human OVCAR8 cells incubated for 48 hrs by sulforhodamine B assay; format: functional, cell-based; details: OVCAR-8, 48 h
SW-620 = test: Growth inhibition of human SW620 cells assessed as cell growth at 0.1 uM incubated for 48 hrs by sulforhodamine B assay relative to control; format: functional; details: SW-620, 48 h, read-out: Activity
DU-145 = test: Growth inhibition of human DU145 cells assessed as cell growth at 0.01 uM incubated for 48 hrs by sulforhodamine B assay relative to control; format: functional; details: DU-145, 48 h, read-out: Activity
SF-539 [4] = test: Growth inhibition of human SF539 cells assessed as cell growth at 0.01 uM incubated for 48 hrs by sulforhodamine B assay relative to control; format: functional; details: SF-539, 48 h, read-out: Activity
SF-539 [5] = test: Growth inhibition of human SF539 cells assessed as cell growth at 1 uM incubated for 48 hrs by sulforhodamine B assay relative to control; format: functional; details: SF-539, 48 h, read-out: Activity
HCT-116 = test: Growth inhibition of human HCT116 cells incubated for 48 hrs by sulforhodamine B assay; format: functional, cell-based; details: HCT-116, 48 h
UO-31 = test: Growth inhibition of human UO31 cells incubated for 48 hrs by sulforhodamine B assay; format: functional, cell-based; details: UO-31, 48 h
OVCAR-3 = test: Growth inhibition of human OVCAR3 cells assessed as cell growth at 0.01 uM incubated for 48 hrs by sulforhodamine B assay relative to control; format: functional; details: OVCAR-3, 48 h, read-out: Activity
MDA-MB-468 = test: Growth inhibition of human MDA-MB-468 cells assessed as cell growth at 1 uM incubated for 48 hrs by sulforhodamine B assay relative to control; format: functional; details: MDA-MB-468, 48 h, read-out: Activity
A549 = test: Growth inhibition of human A549/ATCC cells assessed as cell growth at 0.1 uM incubated for 48 hrs by sulforhodamine B assay relative to control; format: functional; details: A549, 48 h, read-out: Activity
HOP-62 = test: Growth inhibition of human HOP62 cells assessed as cell growth at 0.01 uM incubated for 48 hrs by sulforhodamine B assay relative to control; format: functional; details: HOP-62, 48 h, read-out: Activity
RXF 393 = test: Growth inhibition of human RXF393 cells assessed as cell growth at 0.1 uM incubated for 48 hrs by sulforhodamine B assay relative to control; format: functional; details: RXF 393, 48 h, read-out: Activity
SK-MEL-2 = test: Growth inhibition of human SK-MEL-2 cells assessed as cell growth at 100 uM incubated for 48 hrs by sulforhodamine B assay relative to control; format: functional; details: SK-MEL-2, 48 h, read-out: Activity
MCF7 = test: Growth inhibition of human MCF7 cells assessed as cell growth at 0.1 uM incubated for 48 hrs by sulforhodamine B assay relative to control; format: functional; details: MCF7, 48 h, read-out: Activity
LOX IMVI = test: Growth inhibition of human LOXIMVI cells assessed as cell growth at 0.01 uM incubated for 48 hrs by sulforhodamine B assay relative to control; format: functional; details: read-out: Activity
MOLT-4 = test: Growth inhibition of human MOLT4 cells assessed as cell growth at 0.1 uM incubated for 48 hrs by sulforhodamine B assay relative to control; format: functional; details: MOLT-4, 48 h, read-out: Activity
NCI-H23 = test: Growth inhibition of human NCI-H23 cells assessed as cell growth at 0.1 uM incubated for 48 hrs by sulforhodamine B assay relative to control; format: functional; details: NCI-H23, 48 h, read-out: Activity
M14 = test: Growth inhibition of human M14 cells assessed as cell growth at 100 uM incubated for 48 hrs by sulforhodamine B assay relative to control; format: functional; details: M14, 48 h, read-out: Activity
BT-549 [6] = test: Growth inhibition of human BT549 cells incubated for 48 hrs by sulforhodamine B assay; format: functional, cell-based; details: BT-549, 48 h
[7] = read-out: LC50 (the source's name)
[8] = read-out: pLC50 (the source's name) (converted)

COc1cc(Cl)cc(-c2nn(-c3cccc(NC(=O)Nc4ccc(Cl)c(C(F)(F)F)c4)c3)cc2-c2ccncc2)c1
GI50 (UACC-257; read-out: GI50): 1.59 µM
CC50 (UACC-257; [7]): 1.55 µM
TGI (UACC-257; read-out: TGI): 49.3 µM
GI50 (UACC-257; read-out: pGI50 (converted)): 1.91 µM
CC50 (UACC-257; [8]): 18.6 µM
TGI (UACC-257; read-out: pTGI (converted)): 2.95 µM
GI50 (MDA-MB-231; read-out: GI50): 1.44 µM
CC50 (MDA-MB-231; [7]): 9.52 µM
TGI (MDA-MB-231; read-out: TGI): 37.4 µM
GI50 (MDA-MB-231; read-out: pGI50 (converted)): 1.45 µM
CC50 (MDA-MB-231; [8]): 9.77 µM
TGI (MDA-MB-231; read-out: pTGI (converted)): 3.72 µM
growth at 1 µM (CCRF-CEM): 37%
growth at 1 µM (BT-549 [1]): 92%
growth at 0.01 µM (KM12 [2]): 95%
growth at 0.1 µM (KM12 [3]): 98%
GI50 (K562; read-out: GI50): 0.537 µM
LC50 (K562; read-out: LC50): 9.55 µM
TGI (K562; read-out: TGI): 10.1 µM
GI50 (K562; read-out: pGI50 (converted)): 5.37 µM
LC50 (K562; read-out: pLC50 (converted)): 95.5 µM
TGI (K562; read-out: pTGI (converted)): 10 µM
growth at 0.01 µM (COLO 205): 97%
growth at 100 µM (HCC 2998): -75%
GI50 (OVCAR-8; read-out: GI50): 0.739 µM
CC50 (OVCAR-8; [7]): > 100 µM
TGI (OVCAR-8; read-out: TGI): 59.3 µM
GI50 (OVCAR-8; read-out: pGI50 (converted)): 0.741 µM
CC50 (OVCAR-8; [8]): > 100 µM
TGI (OVCAR-8; read-out: pTGI (converted)): 7.08 µM
growth at 0.1 µM (SW-620): 96%
growth at 0.01 µM (DU-145): 103%
growth at 0.01 µM (SF-539 [4]): 96%
growth at 1 µM (SF-539 [5]): 75%
IC50 (HCT-116): 0.63 µM
GI50 (HCT-116; read-out: GI50): 0.631 µM
CC50 (HCT-116; [7]): 7.3 µM
TGI (HCT-116; read-out: TGI): 23.6 µM
GI50 (HCT-116; read-out: pGI50 (converted)): 0.631 µM
CC50 (HCT-116; [8]): 7.24 µM
TGI (HCT-116; read-out: pTGI (converted)): 2.34 µM
IC50 (UO-31): 1.66 µM
GI50 (UO-31; read-out: GI50): 1.56 µM
CC50 (UO-31; [7]): 95.4 µM
TGI (UO-31; read-out: TGI): 10.9 µM
GI50 (UO-31; read-out: pGI50 (converted)): 1.66 µM
CC50 (UO-31; [8]): 97.7 µM
TGI (UO-31; read-out: pTGI (converted)): 11 µM
growth at 0.01 µM (OVCAR-3): 91%
growth at 1 µM (MDA-MB-468): 50%
growth at 0.1 µM (A549): 98%
growth at 0.01 µM (HOP-62): 100%
growth at 0.1 µM (RXF 393): 96%
growth at 100 µM (SK-MEL-2): -85%
growth at 0.1 µM (MCF7): 93%
growth at 0.01 µM (LOX IMVI): 98%
growth at 0.1 µM (MOLT-4): 57%
growth at 0.1 µM (NCI-H23): 90%
growth at 100 µM (M14): -70%
GI50 (BT-549 [6]; read-out: GI50): 2.38 µM
CC50 (BT-549 [6]; [7]): 25.8 µM
TGI (BT-549 [6]; read-out: TGI): 65.5 µM
GI50 (BT-549 [6]; read-out: pGI50 (converted)): 2.4 µM
CC50 (BT-549 [6]; [8]): 28.8 µM
TGI (BT-549 [6]; read-out: pTGI (converted)): 6.61 µM

Reference: ChEMBL document CHEMBL4308841, “Synthesis, in vitro antiproliferative activity, and kinase inhibitory effects of pyrazole-containing diarylureas and diarylamides” (Eur J Med Chem, 2018)
